Data: patent publication US20260130932A1, “NOVEL COMBINATION OF RIFAXIMIN AND CLARITHROMYCIN FOR TREATING MULTIDRUG-RESISTANT MYCOBACTERIUM ABSCESSUS” (priority 2022, published 2026)
Like-named read-outs stand apart in the source and are kept apart here.

How the values were obtained:
M. abscessus ATCC 19977 [1] = settings: positive control, earlier report; cited from earlier work
[2] = system: M. abscessus ATCC 19977, M. abscessus strains M422 and M110; assay: Checkerboard synergy assay, statements on all 3 M. abscessus strains; assay type: cell-based, Mycobacterium abscessus
Method: (§1) For checkerboard synergy assay, 3 M. abscessus strains were used: M. abscessus ATCC 19977, M. abscessus strains M422 and M110, while bactericidal activity determination and the zebrafish study were performed with M. abscessus ATCC 19977. All three strains of M. abscessus harbor the inducible clarithromycin resistance-conferring erm(41) T28 sequevar. M. abscessus strain M422 and M110 were provided by Dr. Jeanette Teo, National University Hospital, Singapore (Chew K L, et al., 2017. J Med Microbiol 66: 1443-1447). M. abscessus ATCC 19977 and M. avium ATCC 700898 were acquired from American Type Culture Collection (ATCC).
(§2) With Rfx identified as the best potentiator of Clr activity, the interaction between Rfx and Clr was investigated by a checkerboard synergy approach using a broth microdilution method performed in 96-well plates. To provide a classification of the combined antibiotics based on the fractional inhibitory concentration index (FICI), this assay applied the combination of Clr and Rfx in concentrations of 0-64 μg/ml by 2-fold serial dilutions along the abscissa and ordinate, respectively. The FICI was calculated by summing the FIC of Rfx and the FIC of Clr. FIC of Clr is the MIC of Clr in the presence of Rfx divided by MIC of Clr alone. FIC of Rfx was similarly calculated.
(§3) To characterize the interaction between Clr and Rfx, checkerboard synergy assays were performed on pre-induced Clr-resistant M. abscessus. The fractional inhibitory concentration index (FICI) obtained from the checkerboard assay defines whether the interaction between the two compounds is either synergistic (FICI≤0.5), additive (0.5<FICI≤1.0), indifferent (1.0<FICI≤4.0), or antagonistic (FICI >4.0) (Noel D J, Keevil C W, Wilks S A. 2021. MBio 12).

[3] = system: M. avium ATCC 700898 (uninduced); assay: Checkerboard synergy assay; assay type: cell-based, Mycobacterium avium; settings: for MIC90: Mycobacterium avium, ATCC700898
Method: as §2
As both M. abscessus and M. avium are the main organism groups causing pulmonary NTM (Lim A Y H, et al., 2018. BMC Pulm Med 18 (1):85; Tan Y, et al., 2018. BMC Pulm Med 18 (1): 168), the inventors tested the combination of Clr and Rfx against M. avium in the checkerboard assay as well. With a FICI of 0.563, the interaction between Clr and Rfx was additive in M. avium.

M. abscessus ATCC 19977 [4] = assay: Zebrafish embryo infection model; assay type: in vivo, zebrafish (Denio rerio); settings: 19.6 μg/ml Rfx alone, immersion for 4 days
Description: To visualize the bacterial infection in the zebrafish (Denio rerio), a fluorescent strain of M. abscessus ATCC 19977 containing pJKD2893:mScarlet was generated. The pJKD2893 plasmid backbone was a kind gift from Professor Timothy Stinear. The gene expressing the fluorescent protein mScarlet was amplified from μMRE135-mScarlet (Addgene #118489, Mitja Remus-Emsermann lab). The amplification product was annealed by Gibson cloning with the pJKD2893 backbone amplified from a sample of pJKD2893. The resulting plasmid, termed pJKD2893:mScarlet, was electroporated into M. abscessus ATCC 19977 at a culture density equivalent to OD600˜20 using a BioRad GenePulser Xcell set at 2.5 kV, 25 uF, and 1,000Ω. […] Colonies carrying the plasmid were identified by their fluorescence. […]
Preparation of M. abscessus Inoculum and Zebrafish Infections Cultures of M. abscessus-pJKD2893:mScarlet in 7H9 media supplemented with 50 μg/ml kanamycin were grown to OD600 of 0.2-0.3 and concentrated to OD600 of 1 in 0.1% PBS-Tween-20. […] The actual CFU in the inoculum was determined a posteriori by injecting into 50 μl 0.1% PBS-Tween-20 and streaking on a plate. […]
Larvae were harvested to assess the bacterial load at 5 d post-infection using a slightly modified version of the Kremer lab method (Bernut et al., Antimicrob Agents Chemother 58: 4054-4063). […] Fluorescent colonies were counted after 5-6 days. […]

[5] = system: M. abscessus ATCC 19977 (pre-induced); assay: microbe, parasite or virus in culture; assay type: cell-based, Mycobacterium abscessus; settings: for Percentage of bacterial growth: clarithromycin 0 μg/ml
Method: (§4) The FICI was calculated by summing the FIC of Rfx and the FIC of Clr. FIC of Clr is the MIC of Clr in the presence of Rfx divided by MIC of Clr alone. FIC of Rfx was similarly calculated.
as §3

[6] = system: M. abscessus strain M422 (pre-induced); assay: microbe, parasite or virus in culture; assay type: cell-based, Mycobacterium abscessus
Method: as §4, §3

[7] = system: M. abscessus strain M110 (pre-induced); assay: microbe, parasite or virus in culture; assay type: cell-based, Mycobacterium abscessus
Method: as §4, §3

M. abscessus strain M422 [8] = assay: Single-concentration assay with and without clarithromycin (hit validation); assay type: cell-based, Mycobacterium abscessus
Method: as §1
(§5) Primary screening was carried out in 96-well flat-bottom Corning Costar cell culture plates at 50 μM compound along with 4 μg/ml of Clr in a starting inoculum of pre-induced M. abscessus cells at OD600 of 0.005 in a final volume of 100 μl. The plates were put in an airtight container with moist paper towels and incubated for 4 d at 30° C. The cultures in the wells were resuspended before OD600 was read in a BioTek Synergy 4 plate reader.
To start the validation process, the top 10 compounds with >90% growth inhibition were chose to perform a single-concentration assay, with and without clarithromycin. Finally, the inventors obtained 7 compounds that potentiated Clr efficacy.

M. abscessus strain M422 [9] = assay: Primary compound screening against pre-induced bacterial cells; assay type: cell-based, Mycobacterium abscessus; settings: 50 μM compound with 4 μg/ml Clr
Method: A total of 2,252 drugs/compounds comprising 1,576 FDA-approved drugs and 676 clinical compounds were purchased from MedChemExpress. The compounds were dissolved in dimethyl sulfoxide (DMSO) to a stock concentration of 10 mM. The Clr resistance in M. abscessus was induced for 3 days under 0.5 μg/ml of Clr before being subjected to compound screening.
as §5
A compound library consisting of 2,252 FDA-approved and clinical-stage drugs was screened against M. abscessus clinical strain M422. Bacteria were exposed to a sub-inhibitory concentration of Clr (0.5 μg/ml) for 3 days to induce Clr resistance. The test drugs were screened at 50 μM in the presence of 4 μg/ml of Clr to maintain the Clr-resistance phenotype.

[10] = Mycobacteroides abscessus, alone, read-out: MIC90 Rfx individually

COc1nc2ccc(Br)cc2cc1[C@@H](c1ccccc1)[C@@](O)(CCN(C)C)c1cccc2ccccc12 [Bedaquiline]
efficacy against M. abscessus in zebrafish embryos (M. abscessus ATCC 19977 [1]): demonstrated efficacy

CO[C@H]1/C=C/O[C@@]2(C)Oc3c(C)c(O)c4c(O)c(c5c(nc6cc(C)ccn65)c4c3C2=O)NC(=O)/C(C)=C\C=C\[C@H](C)[C@H](O)[C@@H](C)[C@@H](O)[C@@H](C)[C@H](OC(C)=O)[C@@H]1C [Rifaximin, rifaximin]
concentration at which significant synergistic effects with clarithromycin are shown ([2]; Table 2): ≥ 1 µg/mL | MIC of Rfx ([2]; tested alone): extremely high | MIC90 ([3]; alone, read-out: MIC90 Rfx individually): 0.03 µg/mL | MIC90 ([3]; read-out: MIC90): < 0.1 µg/mL | MIC90 Rfx in combination ([3]; in combination with Clr): 0.015 µg/mL | CFU reduction (M. abscessus ATCC 19977 [4]): did not show any CFU reduction | MIC90 ([5]; Mycobacteroides abscessus, ATCC19977, read-out: MIC90 Rfx individually): 128 µg/mL | MIC90 Rfx in combination ([5]; in combination with Clr): 4 µg/mL | MIC90 Rfx in combination [6]: 1 µg/mL | MIC90 [6, 10]: 16 µg/mL | MIC90 Rfx in combination [7]: 4 µg/mL | MIC90 [7, 10]: 128 µg/mL | % inhibition with 0.5 μg/ml Clr (M. abscessus strain M422 [8]; compound combined with clarithromycin): 100% | % inhibition with compound alone (M. abscessus strain M422 [8]; without clarithromycin): 85.6%

CO[C@H]1/C=C/O[C@@]2(C)Oc3c(C)c(O)c4c(c3C2=O)C2=NC3(CCN(CC(C)C)CC3)NC2=C(NC(=O)/C(C)=C\C=C\[C@H](C)[C@H](O)[C@@H](C)[C@@H](O)[C@@H](C)[C@H](OC(C)=O)[C@@H]1C)C4=O [rifabutin]
Percentage of bacterial growth ([5]; partner antibiotic 1 μg/ml): 105.5% | Percentage of bacterial growth ([5]; partner antibiotic 2 μg/ml): 101.8% | Percentage of bacterial growth ([5]; partner antibiotic 4 μg/ml): 99.4% | Percentage of bacterial growth ([5]; partner antibiotic 8 μg/ml): 100.2% | Percentage of bacterial growth ([5]; partner antibiotic 16 μg/ml): 79.1% | Percentage of bacterial growth ([5]; partner antibiotic 32 μg/ml): 9.2% | Percentage of bacterial growth ([5]; partner antibiotic 64 μg/ml): 1.2% | hit status in primary screening (M. abscessus strain M422 [9]): one of the top hits
